Measurements reported in article PMC4401096 (Scientific Reports, 2015).
Like-named read-outs stand apart in the source and are kept apart here.

Tests used:
[1] = Species comparison of DACB glucuronidation in animal liver microsomes; format: in vitro ADME
[2] = HLMs
Procedure: (§1) The standard incubation system for the UGT reaction included HLMs (5 mg of protein/mL), UDPGA (40 mM), Tris-HCl buffer (pH 7.4), MgCl2 (50 mM), 25 μg/mL alamethicin, and substrates in a final volume of 200 μL. The volume of organic solvent was less than 1%. After 60 min of incubation at 37°C, the reaction was terminated by adding 0.1 mL of methanol. The sample was then centrifuged at 20,000 g for 20 minutes to obtain the supernatant for LC-UV-ESI analysis.
(§2) To ensure that less than 10% of the substrate was metabolized in all incubations, different incubation times and protein concentration conditions were selected with 60 min of incubation and 0.15 to 0.75 mg of protein, to confirm the linear interval of metabolite turnover rates. The kinetic models used for analysis were Michaelis–Menten kinetics (eq. 1), biphasic kinetics (eq. 2) and inhibition kinetics (eq. 3)[32]. [drawing 1] [drawing 2] […] Ksi is the constant describing the substrate inhibition interaction. All of the incubations were performed in three independent experiments in duplicate. Kinetic constants were obtained using Origin 7.5 (OriginLab Corp., Northampton, MA) and were reported as the mean ± standard error (S.E.) of the parameter estimate.

[3] = M-2 (16-O-glucuronidation), HIMs
Procedure: as §1, §2

[4] = RLMs
Procedure: as §1, §2

[5] = MLMs
Procedure: as §1, §2

[6] = DLMs
Procedure: as §1, §2

[7] = 3-O-Glucuronide (M-1), TLMs
Procedure: as §1, §2

[8] = 16-O-Glucuronide (M-2), PLMs
[9] = target: T1, UGT1A4 (Homo sapiens, UniProt P22310)
T1 sequence (P22310 29-534): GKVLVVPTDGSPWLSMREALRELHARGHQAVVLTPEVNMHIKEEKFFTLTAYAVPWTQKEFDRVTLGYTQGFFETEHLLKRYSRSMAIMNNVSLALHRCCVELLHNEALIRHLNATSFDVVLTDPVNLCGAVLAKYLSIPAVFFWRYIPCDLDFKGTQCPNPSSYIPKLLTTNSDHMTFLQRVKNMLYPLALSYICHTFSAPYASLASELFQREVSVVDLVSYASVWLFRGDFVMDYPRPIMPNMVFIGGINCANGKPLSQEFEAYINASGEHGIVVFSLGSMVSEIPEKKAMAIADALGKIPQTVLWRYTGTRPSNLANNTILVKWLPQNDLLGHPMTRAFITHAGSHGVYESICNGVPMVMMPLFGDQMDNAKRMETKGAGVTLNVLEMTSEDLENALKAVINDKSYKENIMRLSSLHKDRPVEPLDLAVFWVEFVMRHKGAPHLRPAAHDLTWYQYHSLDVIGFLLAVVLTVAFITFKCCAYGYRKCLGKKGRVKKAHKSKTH
Procedure: (§3) All of the incubations were performed for 60 min using HLMs with a concentration of 0.3 mg of protein/mL, 0.05 mg of protein/mL for UGT1A3 and 0.25 mg of protein/mL for UGT1A4. Similarly, for the UGT1A4 isoform, hecogenin (1–80 μM) was used as a specific inhibitor to determine the differences of inhibition effects between HLMs and UGT1A4.

[10] = target: T2, UGT1A3 (Homo sapiens, UniProt P35503)
T2 sequence (P35503 29-534): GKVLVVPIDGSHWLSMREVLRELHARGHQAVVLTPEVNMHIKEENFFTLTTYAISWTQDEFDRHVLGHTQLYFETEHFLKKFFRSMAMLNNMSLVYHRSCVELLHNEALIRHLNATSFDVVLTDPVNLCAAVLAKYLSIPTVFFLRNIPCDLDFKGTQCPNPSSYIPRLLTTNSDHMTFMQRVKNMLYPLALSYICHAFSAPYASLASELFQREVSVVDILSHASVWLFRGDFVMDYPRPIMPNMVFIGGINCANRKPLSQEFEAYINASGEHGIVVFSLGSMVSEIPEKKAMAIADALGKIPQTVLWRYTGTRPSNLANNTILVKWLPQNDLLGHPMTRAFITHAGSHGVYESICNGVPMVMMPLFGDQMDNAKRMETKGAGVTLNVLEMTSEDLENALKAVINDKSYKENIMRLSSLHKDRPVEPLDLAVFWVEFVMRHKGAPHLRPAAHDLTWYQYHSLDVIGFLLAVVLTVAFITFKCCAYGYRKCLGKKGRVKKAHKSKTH
Procedure: as §3

[11] = animal species liver microsomes
[12] = liver microsomes of various species

## C[C@]12CC[C@H](O)C[C@H]1CC[C@@H]1[C@@H]2CC[C@]2(C)[C@@H](c3ccc(=O)oc3)[C@@H](O)[C@H]3O[C@]132 [DACB, desacetylcinobufagin]
[1]; [11]
  order of CLint activities of UGT1A3, M-2 formation: MLM > RLM > PLM > DLM
  order of UGT1A4 activities by CLint values, M-1 formation: Rabbit > Monkey > Mouse > Dog > Pig
[1]; [12]
  occurrence of 3-O-glucuronidation in species: occurs in DLMs, MLMs, MsLMs, RLMs and TLMs
  occurrence of 16-O-glucuronidation in species: can occur in all species except RtLMs
[2]; M-1 (3-O-glucuronidation)
  Vmax: 0.061 ± 0.002 nmol/min/mg
[2]; M-2 (16-O-glucuronidation)
  Vmax: 0.074 ± 0.004 nmol/min/mg
[3]
  Vmax: 0.007 ± 0.002 nmol/min/mg
[4]; 3-O-Glucuronide (M-1)
  Vmax: 0.107 ± 0.002 nmol/min/mg
[4]; 16-O-Glucuronide (M-2)
  Vmax: 0.018 ± 0.001 nmol/min/mg
[5]; 3-O-Glucuronide (M-1)
  Vmax: 0.174 ± 0.008 nmol/min/mg
[5]; 16-O-Glucuronide (M-2)
  Vmax: 0.288 ± 0.002 nmol/min/mg
[6]; 3-O-Glucuronide (M-1), biphasic kinetics, first line
  Vmax: 0.005 ± 0.001 nmol/min/mg
[6]; 3-O-Glucuronide (M-1), biphasic kinetics, second line
  Vmax: 0.009 ± 0.001 nmol/min/mg
[6]; 16-O-Glucuronide (M-2)
  Vmax: 0.111 ± 0.010 nmol/min/mg
[7]
  Km: 63.6 ± 5.33 µM
  Vmax: 0.106 ± 0.002 nmol/min/mg
[8]
  Vmax: 0.032 ± 0.001 nmol/min/mg

## CN1CCN(CCCN2c3ccccc3Sc3ccc(C(F)(F)F)cc32)CC1 [TFP, trifluoperazine]
[9]
  inhibition of the 3-O-glucuronidation of DACB: significantly inhibit

## CC1(C)[C@@H](O)CC[C@]2(C)[C@H]3C(=O)C=C4[C@@H]5C[C@@](C)(C(=O)O)CC[C@]5(C)CC[C@@]4(C)[C@]3(C)CC[C@@H]12 [glycyrrhetinic acid]
[10]
  inhibition of the formation of M-2 (16-O-glucuronate): significantly inhibited
[10]; glycyrrhetinic acid 0–60 μM, UGT1A3 and HLMs
  IC50 values for M-2 formation, UGT1A3 compared with HLMs: equal

## hecogenin
[9]
  inhibition of the 3-O-glucuronidation of DACB: significantly inhibit
[9]; hecogenin 1–80 μM, UGT1A4 and HLMs
  IC50 values for M-1 formation, UGT1A4 compared with HLMs: similar
